Data: patent US20060194811A1, “Pyrimidine derivatives” (KYOWA HAKKO KOGYO CO., LTD., priority 2003, published 2006)
Read-outs that look alike come from different tables or passages of the source.

Assays:
[1] = molecular target: T1, TARC binding to Hut78 cells (Homo sapiens, UniProt P51679); test: Inhibitory activity on binding of [125I]-TARC to Hut78 cells; details: for inhibition at 1 µM: read-out: The Binding Inhibitory Rates at 1 μmol/L (%)
T1 construct: host or cells: Hut78 cells (whole cells)
T1 sequence (P51679 1-360): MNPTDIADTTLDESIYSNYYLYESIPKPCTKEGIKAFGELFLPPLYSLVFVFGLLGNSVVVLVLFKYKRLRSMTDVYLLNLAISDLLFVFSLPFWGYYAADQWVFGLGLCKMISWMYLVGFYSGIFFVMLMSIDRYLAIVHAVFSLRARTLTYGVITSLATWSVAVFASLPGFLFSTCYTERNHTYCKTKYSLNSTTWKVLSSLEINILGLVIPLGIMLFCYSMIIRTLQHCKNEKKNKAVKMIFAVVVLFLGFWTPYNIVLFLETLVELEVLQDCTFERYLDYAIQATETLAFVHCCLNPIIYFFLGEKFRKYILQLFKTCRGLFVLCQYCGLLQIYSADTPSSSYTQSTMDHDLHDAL
Experimental: Inhibitory Activity on Binding of [^125I]-TARC to Hut78 Cells
The RPMI-1640 medium (Sigma-Aldrich Japan) containing 20 mmol/L HEPES [4-(2-hydroxyethyl)-1-piperazinylethanesulfonic acid; HEPES, Nacalai Tesque, Inc.] and 0.1 w/v % bovine serum albumin (SEIKAGAKU CORPORATION) was adjusted to pH 7.0 with sodium hydrogencarbonate (Wako Pure Chemical Industries, Ltd.) to yield a binding/wash buffer. In a 96-well round-bottomed plate (Corning Costar Corporation) were placed 60 μL of a suspension of Hut78 cells (ATCC No. TIB-161) (3×10^5 cells) in the binding/wash buffer, 20 μL of a solution of a test compound and 20 μL of a solution of 810 Bq of [^125I]-TARC (Amersham Biosciences K.K.) diluted with the binding/wash buffer up to the total aliquot of 100 μL, followed by reaction at room temperature for two hours. The solution of the test compound had been prepared by dissolving the test compound in dimethyl sulfoxide (Nacalai Tesque, Inc.) to a concentration of 10 mmol/L, and diluting the solution with the binding/wash buffer to a series of concentrations. The nonspecific binding was determined by a binding assay in the presence of a sufficient amount of unlabeled TARC. The total binding was defined as a binding in the case where dimethyl sulfoxide (Nacalai Tesque, Inc.) was added, instead of the test compound, in the same concentration (0.1 v/v %). After binding [^125I]-TARC to Hut78 cells, 50 μL of a polyethyleneimine solution (Nacalai Tesque, Inc.) diluted to 0.3 w/v % with the binding/wash buffer was added each of wells of a glass filter (Unifilter GF/B96, Packard BioScience Company), was rapidly filtrated using Filtermate 196 (Packard BioScience Company) and washed with the binding/wash buffer at 4° C. to thereby separate the radioactive ligand which is not bound to the cells. Microscinti 20 (Packard BioScience Company) was placed in each well at 50 μL/well, and the radioactivity on the glass filter was determined using Topcount NXT™ (Packard BioScience Company). The binding inhibitory rates (%) of the test compounds were determined by calculation according to the following equation: [formula] Total binding: [^125I]-TARC binding radioactivity without addition of the test compound Binding upon addition of test compound: [^125I]-TARC binding radioactivity at respective concentration upon addition of test compound
Nonspecific binding: [^125I]-TARC binding radioactivity upon addition of unlabeled TARC

[2] = test system: CD4-positive T cells and eosinophils in the bronchoalveolar lavage fluid; test: Inhibitory activities on antigen-induced cellular infiltration (ovalbumin-sensitized mice, bronchoalveolar lavage fluid); format: in vivo, BALB/c mice
Experimental: Inhibitory Activities on Antigen-Induced Cellular Infiltration and Cytokine Production
BALB/c mice were sensitized by intraperitoneally administrating 50 μg of ovalbumin (Sigma-Aldrich Japan) and 1 mg of aluminum hydroxide (Wako Pure Chemical Industries, Ltd.) and further sensitized in the same manner on the 7th day from the first sensitization (0 day). From on the 23rd day, the mice were allowed to inhale a 1% ovalbumin physiological saline solution [prepared by dissolving ovalbumin in physiological saline (Otsuka Pharmaceutical Co., Ltd.) to a concentration 1%] using Supersonic Nebulizer NE-U 12 (OMRON Corporation) for 30 minutes once per 2 days (antigen nebulization). DMSO (Kanto Kagaku), Tween 80 (Wako Pure Chemical Industries), and 10 mmol/L acetic acid buffer containing 0.9% sodium chloride were mixed at a ratio of 5 to 5 to 90, whereby a liquid (an administration solvent) was prepared. Each test compound was dissolved in the administration solvent, whereby a solution for subcutaneous administration was prepared. The mice were grouped into test compound-administered groups and a control group. The test compound was subcutaneously administered to the mice of each of the test compound-administered groups at a dose of 30 mg/kg and the administration solvent was subcutaneously administered to the mice of the control group 30 minutes prior to the fourth antigen nebulization and after 4 hours from the fourth antigen nebulization. 8 hours after the fourth antigen nebulization, the bronchoalveolar lavage of each mouse was performed to obtain a bronchoalveolar lavage fluid. The number of CD4-positive T cells and eosinophils in the bronchoalveolar lavage fluid were counted. 10 mice were subjected to the each group in the test.

[3] = test compound 1 μmol/L, [125I]-TARC, Hut78 cells, room temperature, two hours

| inhibition at 1 µM [1, 3] | Compound | inhibition at 1 µM [1] | The Binding Inhibitory Rates at 1 μmol/L (%) [1, 3] | other results |
| --- | --- | --- | --- | --- |
| 81% | Fc1ccc(-c2cnc(N3CCC(N4CCCCC4)CC3)nc2NCc2ccc(Cl)cc2F)c(F)c1 [Compound 58, 4-(4-chloro-2-fluorobenzylamino)-5-(2,4-difluorophenyl)-2-(4-piperidinopiperidino)pyrimidine] |  |  |  |
|  | CC1CCCN(C2CCN(c3ncc(-c4ccc(F)cc4F)c(NCc4c(F)cccc4F)n3)CC2)C1 (centres unmarked) [Compound 15, 4-(2,6-difluorobenzylamino)-5-(2,4-difluorophenyl)-2-[4-(3-methylpiperidino)piperidino]pyrimidine] | 90% |  |  |
| 82% | Fc1ccc(-c2cnc(N3CCC(N4CCCCC4)CC3)nc2NCc2c(F)cccc2Cl)c(F)c1 [Compound 61, 4-(2-chloro-6-fluorobenzylamino)-5-(2,4-difluorophenyl)-2-(4-piperidinopiperidino)pyrimidine] |  |  |  |
| 89% | Fc1ccc(-c2cnc(N3CCC(N4CCCCC4)CC3)nc2NCc2c(F)cccc2F)c(F)c1 [Compound 40, 4-(2,6-difluorobenzylamino)-5-(2,4-difluorophenyl)-2-(4-piperidinopiperidino)pyrimidine] |  |  |  |
| 92% | NC(=O)C1CCCN(C2CCN(c3ncc(-c4ccc(F)cc4F)c(NCc4ccc(F)cc4F)n3)CC2)C1 (centres unmarked) [Compound 8, 2-[4-(3-carbamoylpiperidino)piperidino]-4-(2,4-difluorobenzylamino)-5-(2,4-difluorophenyl)pyrimidine] |  |  | number of eosinophils in a bronchoalveolar lavage fluid obtained from each mouse ([2]; 30 mg/kg subcutaneously 30 minutes prior to and 4 hours after fourth antigen nebulization, lavage 8 hours after, mean±standard error, control (1.5±0.1)×10^5): (0.6±0.1)×10^5; number of CD4-positive T cells in a bronchoalveolar lavage fluid obtained from each mouse ([2]; 30 mg/kg subcutaneously 30 minutes prior to and 4 hours after fourth antigen nebulization, lavage 8 hours after, mean±standard error, control (1.9±0.2)×10^4): (0.6±0.1)×10^4; number of CD4-positive T cells less than that of the control group ([2]; 30 mg/kg subcutaneously, bronchoalveolar lavage fluid, P<0.0001, Aspin-Welch test): 68%; number of eosinophils less than that of the control group ([2]; 30 mg/kg subcutaneously, bronchoalveolar lavage fluid, P<0.0001, Student's test): 57% |
|  | 4-(2,4-difluorobenzylamino)-5-(2,4-difluorophenyl)-2-[4-(1-methylpiperidinio)piperidino]pyrimidine iodide [Compound 72] |  | 96% |  |
|  | CC1CCCCN1C1CCN(c2ncc(-c3ccc(F)cc3F)c(NCc3ccc(F)cc3F)n2)CC1 (centres unmarked) [Compound 3, 4-(2,4-difluorobenzylamino)-5-(2,4-difluorophenyl)-2-[4-(2-methylpiperidino)piperidino]pyrimidine] | 93% |  |  |
|  | CC1CCCN(C2CCN(c3ncc(-c4ccc(F)cc4F)c(NCc4ccc(F)cc4F)n3)CC2)C1 (centres unmarked) [Compound 1, 4-(2,4-difluorobenzylamino)-5-(2,4-difluorophenyl)-2-[4-(3-methylpiperidino)piperidino]pyrimidine] | 91% |  |  |
|  | CC[N+]1(C2CCN(c3ncc(-c4ccc(F)cc4F)c(NCc4ccc(F)cc4F)n3)CC2)CCCCC1.[I-] [Compound 73, 4-(2,4-difluorobenzylamino)-5-(2,4-difluorophenyl)-2-[4-(1-ethylpiperidinio)piperidino]pyrimidine iodide] |  | 99% |  |
|  | C=CC[N+]1(C2CCN(c3ncc(-c4ccc(F)cc4F)c(NCc4ccc(F)cc4F)n3)CC2)CCCCC1.[Br-] [Compound 75, 2-[4-(1-allylpiperidinio)piperidino]-4-(2,4-difluorobenzylamino)-5-(2,4-difluorophenyl)pyrimidine bromide] |  | 97% |  |
